In paper PMC2864539 (Cancer research, 2010):

Legend:
ovine COX-1 = target: T1, ovine COX-1 (Ovis aries, UniProt P05979); experiment: [[…]-14C]arachidonic acid conversion, radio-TLC; format: biochemical
T1 sequence (P05979 25-600): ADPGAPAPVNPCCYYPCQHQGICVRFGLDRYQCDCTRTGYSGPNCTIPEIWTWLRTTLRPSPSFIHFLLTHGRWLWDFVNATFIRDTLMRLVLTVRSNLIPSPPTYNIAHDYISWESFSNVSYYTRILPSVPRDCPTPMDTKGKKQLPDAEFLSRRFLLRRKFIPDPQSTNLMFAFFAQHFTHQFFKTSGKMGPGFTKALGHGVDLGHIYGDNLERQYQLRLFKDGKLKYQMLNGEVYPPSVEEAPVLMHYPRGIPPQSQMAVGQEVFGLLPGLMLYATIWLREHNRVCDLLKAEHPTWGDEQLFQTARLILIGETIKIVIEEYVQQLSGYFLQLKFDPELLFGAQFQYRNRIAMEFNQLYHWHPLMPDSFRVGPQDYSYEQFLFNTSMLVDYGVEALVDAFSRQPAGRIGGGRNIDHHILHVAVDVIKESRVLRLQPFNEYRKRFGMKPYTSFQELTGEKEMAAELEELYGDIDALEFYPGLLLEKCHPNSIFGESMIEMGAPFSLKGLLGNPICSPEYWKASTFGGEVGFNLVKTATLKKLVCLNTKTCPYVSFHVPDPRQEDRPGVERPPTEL

human COX-2 = target: T2, human COX-2 (Homo sapiens, UniProt P35354); experiment: [[…]-14C]arachidonic acid conversion, radio-TLC; format: biochemical
T2 sequence (P35354 18-604): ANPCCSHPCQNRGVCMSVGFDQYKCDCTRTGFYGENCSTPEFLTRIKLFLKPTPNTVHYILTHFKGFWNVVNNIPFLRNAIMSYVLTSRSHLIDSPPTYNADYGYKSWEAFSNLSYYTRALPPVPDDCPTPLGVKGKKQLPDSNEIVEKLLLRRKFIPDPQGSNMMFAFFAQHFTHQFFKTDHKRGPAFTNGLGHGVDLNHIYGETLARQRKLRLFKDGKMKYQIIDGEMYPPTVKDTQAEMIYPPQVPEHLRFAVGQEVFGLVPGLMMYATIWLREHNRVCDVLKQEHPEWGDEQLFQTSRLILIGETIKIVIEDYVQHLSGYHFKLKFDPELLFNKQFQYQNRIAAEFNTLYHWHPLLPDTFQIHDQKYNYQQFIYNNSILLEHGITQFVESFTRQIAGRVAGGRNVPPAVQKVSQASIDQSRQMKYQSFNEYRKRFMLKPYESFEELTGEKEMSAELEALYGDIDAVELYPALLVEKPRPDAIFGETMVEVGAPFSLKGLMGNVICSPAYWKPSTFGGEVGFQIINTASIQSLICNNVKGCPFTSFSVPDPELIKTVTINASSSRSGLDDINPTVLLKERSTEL

IC50 (ovine COX-1): > 66 µM | IC50 (human COX-2): > 4 µM
Compound: COc1ccc2c(c1)c(CC(=O)NCCNC(=O)c1ccc(C(=O)[O-])c(C3=c4cc5c6c(c4Oc4c3cc3c7c4CCCN7CCC3)CCC[N+]=6CCC5)c1)c(C)n2C(=O)c1ccc(Cl)cc1 [compound 3]
